Reference: PubChem BioAssay (NCI)
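Following 48 hours of exposure in 96-well plates, responses at five concentrations were used to interpolate endpoints linearly. The concentration for full growth arrest is given as TGI.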

Assays:
Experiment in all cases: NCI-60 cell line screen, 48 h
[1] = system: MALME-3M melanoma
[2] = system: SF-268 CNS
[3] = system: NCI/ADR-RES ovarian
[4] = system: NCI-H23 lung
[5] = system: HT29 colon
[6] = system: MDA-MB-231 breast
[7] = system: MCF7 breast
[8] = system: NCI-H460 lung
[9] = system: DU-145 prostate
[10] = system: RXF 393 renal
[11] = system: HL-60(TB) leukemia
[12] = system: OVCAR-5 ovarian
[13] = system: HOP-92 NSCLC
[14] = system: MOLT-4 leukemia
[15] = system: A498 renal
[16] = system: SNB-75 CNS
[17] = system: PC-3 prostate

Structure (SMILES)	TGI [1]	TGI [2]	TGI [3]	TGI [4]	TGI [5]	TGI [6]	TGI [7]	TGI [8]	TGI [9]	TGI [10]	TGI [11]	TGI [12]	TGI [13]	TGI [14]	TGI [15]	TGI [16]	TGI [17]
Cc1cccc2c(N)c3cccc(C(=O)NCCNCCN)c3nc12	36.2 µM	1.27 µM	> 100 µM	6.21 µM	91.2 µM	36.1 µM	> 100 µM	19.8 µM	> 72.4 µM	36.1 µM	> 100 µM	> 100 µM	> 71.8 µM	> 96.1 µM	> 55.9 µM	4.88 µM	> 100 µM
C=CC(=O)C#Cc1cnc(OC)nc1OC	53.3 µM	> 71.9 µM	> 86.7 µM	37.6 µM	> 54.4 µM	38.1 µM	30.6 µM	> 59.9 µM	> 100 µM	> 66.2 µM	3.25 µM	33.9 µM	> 54.3 µM	4.13 µM	> 69.1 µM	20.5 µM	42 µM
COc1ccc(C[C@@H]2OC3(C=CC(=O)CC3Sc3ccccc3)O[C@H]2Cc2ccc(OC)cc2)cc1 (stereo not given in full)	4.02 µM	1.75 µM	3.64 µM	5.16 µM	3.19 µM	7.35 µM	1.98 µM	12.1 µM	11.6 µM	0.348 µM	6.06 µM	2.58 µM	2.49 µM	2.18 µM	16.1 µM	3.05 µM	3.95 µM
O=c1c2ccccc2nc(-c2ccccc2)n1/N=C/c1ccccc1[N+](=O)[O-]	> 100 µM	> 68.7 µM	> 100 µM	58.8 µM	> 100 µM	> 72.8 µM	> 100 µM	> 100 µM	> 100 µM	80.4 µM	> 100 µM	> 100 µM	98.4 µM	> 100 µM	> 100 µM	34.2 µM	> 100 µM
CC(=O)OC1CCn2c1nc1c2C(=O)C=C(N2CC2)C1=O (stereo not given)	0.0872 µM	0.784 µM	1.28 µM	1.08 µM	2.08 µM	3.92 µM	0.957 µM	5.96 µM	12.7 µM	0.241 µM	0.494 µM	2.61 µM	1.83 µM	0.208 µM	0.613 µM	0.479 µM	2.52 µM
COC(=O)c1ccccc1C1CN=NC12Cc1cc3c(cc1C2=O)CCC3 (stereo not given)	> 100 µM	> 100 µM	> 100 µM	> 100 µM	> 100 µM	> 100 µM	> 100 µM	> 100 µM	> 100 µM	> 100 µM	61.5 µM	> 100 µM	> 100 µM	> 100 µM	> 100 µM	> 100 µM	> 100 µM
COc1ccc(/C=N/NS(=O)(=O)c2ccc(/C=C3\NC(=O)NC3=O)cc2)cc1	> 100 µM	86.9 µM	> 100 µM	> 100 µM	> 100 µM	> 100 µM	> 100 µM	> 100 µM	> 100 µM	> 100 µM	> 100 µM	> 100 µM	> 100 µM	> 100 µM	> 100 µM	77.9 µM	> 100 µM
CSc1ncc2c(C#N)c3n(C)c4ccccc4n3c(=O)c2n1	> 100 µM	> 100 µM	> 100 µM	> 100 µM	> 100 µM	> 100 µM	> 100 µM	> 100 µM	> 100 µM	> 100 µM	> 100 µM	> 100 µM	> 100 µM	> 100 µM	> 100 µM	> 100 µM	> 100 µM
CN(C)/C=N/c1cc(=O)n(C)c(=O)n1C	> 100 µM	> 100 µM	> 100 µM	> 100 µM	> 100 µM	> 100 µM	> 100 µM	> 100 µM	> 100 µM	> 100 µM	> 100 µM	> 100 µM	> 100 µM	> 100 µM	> 100 µM	> 100 µM	> 100 µM
COC(=O)NCCc1[nH]nc2c1C(=O)C=C(Nc1ccccc1OC)C2=O	28 µM	> 100 µM	52.1 µM	32.7 µM	> 100 µM	94.3 µM	38.7 µM	> 100 µM	> 100 µM	> 100 µM	52.7 µM	> 100 µM	> 100 µM	55.1 µM	> 100 µM	> 100 µM	> 100 µM
S=c1[nH]nc(COc2ccc(Cl)cc2)n1-c1ccccc1	> 100 µM	> 100 µM	> 100 µM	> 100 µM	> 100 µM	> 100 µM	> 100 µM	> 100 µM	> 100 µM	> 100 µM	> 100 µM	> 100 µM	> 100 µM	> 100 µM	> 100 µM	> 100 µM	> 100 µM
CN1CCOC1(C)c1ccccc1 (stereo not given)	> 100 µM	> 100 µM	> 100 µM	> 100 µM	> 100 µM	> 100 µM	> 100 µM	> 100 µM	> 100 µM	> 100 µM	> 100 µM	> 100 µM	> 100 µM	> 100 µM	> 100 µM	> 100 µM	> 100 µM
COC(=O)C1=C(C)NC(CF)=C(C(=O)OC)C1c1cccc2c(=O)c3ccccc3oc12 (stereo not given)	83.6 µM	63.6 µM	27.8 µM	> 100 µM	> 100 µM	> 100 µM	> 100 µM	> 100 µM	> 100 µM	> 100 µM	> 100 µM	> 100 µM	35.3 µM	> 100 µM	94.5 µM	> 100 µM	8.57 µM
C#CCC(O)c1ccc(OC)c(OCc2ccccc2)c1 (stereo not given)	> 100 µM	> 100 µM	> 100 µM	> 100 µM	> 100 µM	> 100 µM	> 100 µM	> 100 µM	> 100 µM	> 100 µM	> 100 µM	> 100 µM	> 100 µM	56.6 µM	> 100 µM	78.4 µM	> 100 µM
COC(=O)c1cc(C#N)[nH]c1-c1ccc(Br)s1	19.7 µM	24.2 µM	30.6 µM	18.9 µM	24.8 µM	30.7 µM	18.6 µM	37.8 µM	31.6 µM	19.4 µM	36.5 µM	24.1 µM	15.3 µM	64.9 µM	9.9 µM	24.9 µM	13.4 µM
O=C(NCCc1ccccn1)c1ccc2cc(C(=O)N3CC(CCl)c4ccc([N+](=O)[O-])cc43)[nH]c2c1 (stereo not given)	> 100 µM	> 100 µM	> 100 µM	> 100 µM	> 100 µM	> 66.8 µM	> 100 µM	> 100 µM	> 100 µM	60.3 µM	> 100 µM	> 100 µM	52.1 µM	> 100 µM	> 100 µM	> 100 µM	> 100 µM
C[C@H]1[C@H]2[C@H](C[C@@]3(C)C4=CC[C@H]5C(C)(C)[C@@H](OC6OCC(O)C(O)C6O)CC[C@@]56C[C@@]46CC[C@]23C)O[C@@]2(O)[C@@H]1OC(C)(C)[C@H]2O (stereo not given in full)	3.79 µM	6.35 µM	9.94 µM	3.31 µM	8.97 µM	6.9 µM	1.72 µM	7.83 µM	1.91 µM	3.71 µM	28.8 µM	11.5 µM	3.28 µM	24.2 µM	4.95 µM	6 µM	2.32 µM
CC(=O)n1nc(-c2[nH]c(C)c(-c3nn(C(C)=O)c(=S)o3)c2C)oc1=S	> 96.6 µM	> 100 µM	> 100 µM	> 100 µM	> 100 µM	> 100 µM	> 100 µM	> 100 µM	> 100 µM	> 100 µM	> 100 µM	> 100 µM	> 100 µM	> 100 µM	> 100 µM	> 100 µM	> 100 µM
NC(=S)NN=Cc1ccccc1OCc1cccc(COc2ccccc2C=NNC(N)=S)n1	> 100 µM	> 100 µM	> 100 µM	> 100 µM	> 100 µM	22.3 µM	> 100 µM	> 100 µM	> 45.6 µM	10.9 µM	> 100 µM	> 100 µM	14.3 µM	> 100 µM	47.7 µM	5.62 µM	> 100 µM
COC(=O)c1ccccc1/C=C1\Cc2ccc3c(c2C1=O)CCC3	> 100 µM	> 100 µM	> 100 µM	> 100 µM	> 100 µM	> 100 µM	> 100 µM	> 100 µM	> 100 µM	> 100 µM	> 100 µM	> 100 µM	> 100 µM	> 100 µM	> 100 µM	> 100 µM	> 100 µM
